Measured values published in patent publication US11026946B2, “Pharmacologically active alicyclic-substituted pyrazolo[1,5-a]pyrimidine derivatives” (RICHTER GEDEON NYRT., priority 2017, dated 2021).

What was measured:
[1] = test system: adult rats; assay: Foot shock-induced ultrasonic vocalization (USV) in adult rats; type: in vivo, rat; settings: 1 mg/kg per os, 1 h before shocking, male Wistar rats, versus vehicle
Experimental: Foot Shock-Induced Ultrasonic Vocalization (USV) in Adult Rats
(§1) Under stressful conditions, adult rats emit 22 kHz ultrasounds that can be reduced by various pharmacological treatments (De Vry et al, Eur. J. Pharmacol. 1993, 249, 331-339; Sanchez, Eur. J. Pharmacol. 2003, 463, 133-143). […] Therefore, a foot shock-induced vocalization paradigm in adult rats was used to assess efficacy of centrally acting GABAB receptor ligands. Behavioral measurements were carried out on male Wistar rats (200-250 g, Toxicoop, Hungary). Rats were housed in groups of four in plastic cages with a wire grid top in a temperature and light-controlled laboratory animal care unit (22±2° C., 12-h light/dark cycle, lights on at 6:00 AM) with ad libitum access to commercial pellet rat food and tap water. Investigations were approved by the Local Ethical Committee of Gedeon Richter Plc. and were carried out in strict compliance with the European Directive 2010/63/EU regarding the care and use of laboratory animals for experimental procedures and all efforts were made to minimize the number of animals as well as their suffering. In order to evoke emission of ultrasounds, animals were footshocked after a habituation period of 30 s (6 shocks, 1 s, 0.8 mA each, inter-shock interval 10 s) in a sound attenuated shocking chamber (Experimetria, 40×40×80 cm). Investigational compounds were administered at the dose of 1 mg/kg in a solid dispersion formulation in distilled water 1 h before shocking per os. Vocalizations were measured right after the last footshock for 10 min with a Metris Sonotrack system and the total time of vocalizations was registered. Vocalization of parallel vehicle treated animals was considered as control value and inhibition percent was calculated for each compound. At approximately 75 min after treatment and behavioral measurements, blood and brain samples were harvested in order to determine exposures associated with in vivo activity.

[2] = Plasma and brain levels after the USV assay; type: in vivo, rat; settings: 1 mg/kg per os, approximately 75 min after treatment; for brain exposure at 1 mg/kg: rat brain; for plasma exposure at 1 mg/kg: rat plasma
Experimental: as §1
In Table 2 compounds of this invention measured in the USV assay are listed. In Table 3 plasma and brain levels of compounds of this invention are listed.

[3] = biological target: T1, GABAB receptor (Rattus norvegicus, UniProt O88871+Q9Z0U4); assay: In vitro [35S]GTPγS binding assay in rat cortical membranes; type: biochemical; settings: PAM EC50, [35S]GTPγS binding, read-out: In vitro PAM potency
T1 construct: from tissue; host or cells: rat brain cortex membranes
Experimental: In Vitro [^35S]GTPγS Binding Assay in Rat Cortical Membranes
Cortices of freshly harvested rat brains were dissected on an ice-cold surface and homogenized by a glass Dounce homogeniser immediately in ice-cold buffer containing 50 mM Tris, 5 mM MgCl2 and 1 mM EDTA (pH=7.6). Tissue homogenates were centrifuged at 40000 g for 15 min at 4° C. Membrane pellets were resuspended in the same buffer and membranes were incubated for 10 min at 30° C. in a shaking water bath to eliminate endogenous GABA. Homogenates were centrifuged again under the same conditions. The final pellets were resuspended in ice-cold buffer (pH=7.6) containing 50 mM Tris, 100 mM NaCl, 7 mM MgCl2, 1 mM EDTA and 1 mM dithiotreithol (DTT) to yield a concentration of 20 mg tissue weight/ml and frozen at −70° C. until use. The assay was done in a buffer containing 50 mM Tris (pH=7.4), 100 mM NaCl, 7 mM MgCl2, 1 mM EDTA and 1 mM DTT. Each assay tube contained 150 μL GDP (in a final concentration of 50 μM), 100 μL ligand and 125 μL of the membrane suspension (250 μg tissue/tube). The assay tubes were preincubated for 10 min at 30° C. to assure equilibrium. Nonspecific binding was determined in the presence of 10 μM GTPγS: basal binding was determined in the presence of buffer only. After addition of 50 pM [^35S]GTPγS in a volume of 25 μL to the tubes, membranes were incubated for an additional 60 min at 30° C. The assay was terminated by rapid filtration through Packard UniFilter GF/B using a Packard harvester and washed four times with 1 ml ice-cold buffer. After drying the filters at 40° C. for 1 h, 40 μL Microscint (Packard) was added to the filters and radioactivity of the filters was determined by a TopCount NXT (PerkinElmer, Waltham, Mass.: Alper and Nelson, Eur. J. Pharmacol. 1998, 343, 303-312; Rinken et al, Biochem. Pharmacol. 1999, 57, 155-162). Data thus gathered were used to determine PAM EC50 values for each compound as primary in vitro activity end point.

[4] = biological target: GABAB receptors (Homo sapiens, UniProt O75899+Q9UBS5); settings: in vitro positive allosteric activity, [35S]GTPγS binding; cited from earlier work
Sequence of GABAB receptors (O75899 42-941): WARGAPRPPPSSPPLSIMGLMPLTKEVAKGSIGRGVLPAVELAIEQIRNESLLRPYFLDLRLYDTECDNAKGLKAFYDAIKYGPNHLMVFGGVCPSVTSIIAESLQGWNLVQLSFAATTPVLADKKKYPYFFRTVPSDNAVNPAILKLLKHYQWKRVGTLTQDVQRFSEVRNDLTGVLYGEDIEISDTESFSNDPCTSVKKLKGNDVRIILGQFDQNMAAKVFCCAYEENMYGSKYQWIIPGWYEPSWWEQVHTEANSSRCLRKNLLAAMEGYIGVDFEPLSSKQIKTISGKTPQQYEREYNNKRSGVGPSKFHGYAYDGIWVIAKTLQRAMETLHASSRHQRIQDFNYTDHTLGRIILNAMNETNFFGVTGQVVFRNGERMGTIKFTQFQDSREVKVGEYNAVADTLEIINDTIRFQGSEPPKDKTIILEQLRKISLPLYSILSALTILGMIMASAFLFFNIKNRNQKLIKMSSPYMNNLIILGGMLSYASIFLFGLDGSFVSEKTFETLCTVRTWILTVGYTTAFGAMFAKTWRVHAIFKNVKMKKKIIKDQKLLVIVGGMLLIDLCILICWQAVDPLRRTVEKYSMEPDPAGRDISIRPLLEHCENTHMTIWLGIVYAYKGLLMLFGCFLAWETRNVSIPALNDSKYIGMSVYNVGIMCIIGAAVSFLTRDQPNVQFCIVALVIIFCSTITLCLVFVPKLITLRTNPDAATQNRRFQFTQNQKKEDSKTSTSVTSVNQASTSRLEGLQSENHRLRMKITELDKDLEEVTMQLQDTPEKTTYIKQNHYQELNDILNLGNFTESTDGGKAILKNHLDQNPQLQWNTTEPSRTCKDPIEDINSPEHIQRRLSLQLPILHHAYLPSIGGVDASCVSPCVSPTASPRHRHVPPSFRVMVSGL
Sequence of GABAB receptors (Q9UBS5 15-961 limits assumed): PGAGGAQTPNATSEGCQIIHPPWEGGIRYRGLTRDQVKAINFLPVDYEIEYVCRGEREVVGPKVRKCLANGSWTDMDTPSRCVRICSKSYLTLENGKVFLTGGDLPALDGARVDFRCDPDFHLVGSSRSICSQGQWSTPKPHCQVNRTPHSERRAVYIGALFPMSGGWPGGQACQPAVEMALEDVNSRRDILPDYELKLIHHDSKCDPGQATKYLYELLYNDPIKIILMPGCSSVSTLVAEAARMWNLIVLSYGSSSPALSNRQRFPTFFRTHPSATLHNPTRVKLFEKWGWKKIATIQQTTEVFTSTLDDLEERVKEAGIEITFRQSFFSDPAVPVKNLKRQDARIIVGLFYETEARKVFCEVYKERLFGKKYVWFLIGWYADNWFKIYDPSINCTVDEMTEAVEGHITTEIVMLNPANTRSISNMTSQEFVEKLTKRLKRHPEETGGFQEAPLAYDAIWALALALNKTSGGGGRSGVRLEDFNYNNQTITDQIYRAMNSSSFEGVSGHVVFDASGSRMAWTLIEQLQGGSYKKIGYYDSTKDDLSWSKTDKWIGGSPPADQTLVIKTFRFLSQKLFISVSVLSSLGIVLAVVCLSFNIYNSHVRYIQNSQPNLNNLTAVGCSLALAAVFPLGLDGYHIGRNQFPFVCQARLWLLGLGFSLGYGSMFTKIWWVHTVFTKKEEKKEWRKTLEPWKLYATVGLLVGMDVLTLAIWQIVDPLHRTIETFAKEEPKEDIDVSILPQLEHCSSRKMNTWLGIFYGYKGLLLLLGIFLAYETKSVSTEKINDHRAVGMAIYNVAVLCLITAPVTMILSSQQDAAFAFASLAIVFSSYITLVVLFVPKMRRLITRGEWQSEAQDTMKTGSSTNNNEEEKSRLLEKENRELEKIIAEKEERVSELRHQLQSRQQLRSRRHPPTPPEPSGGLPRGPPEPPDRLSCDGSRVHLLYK

T1 sequence (O88871 41-940): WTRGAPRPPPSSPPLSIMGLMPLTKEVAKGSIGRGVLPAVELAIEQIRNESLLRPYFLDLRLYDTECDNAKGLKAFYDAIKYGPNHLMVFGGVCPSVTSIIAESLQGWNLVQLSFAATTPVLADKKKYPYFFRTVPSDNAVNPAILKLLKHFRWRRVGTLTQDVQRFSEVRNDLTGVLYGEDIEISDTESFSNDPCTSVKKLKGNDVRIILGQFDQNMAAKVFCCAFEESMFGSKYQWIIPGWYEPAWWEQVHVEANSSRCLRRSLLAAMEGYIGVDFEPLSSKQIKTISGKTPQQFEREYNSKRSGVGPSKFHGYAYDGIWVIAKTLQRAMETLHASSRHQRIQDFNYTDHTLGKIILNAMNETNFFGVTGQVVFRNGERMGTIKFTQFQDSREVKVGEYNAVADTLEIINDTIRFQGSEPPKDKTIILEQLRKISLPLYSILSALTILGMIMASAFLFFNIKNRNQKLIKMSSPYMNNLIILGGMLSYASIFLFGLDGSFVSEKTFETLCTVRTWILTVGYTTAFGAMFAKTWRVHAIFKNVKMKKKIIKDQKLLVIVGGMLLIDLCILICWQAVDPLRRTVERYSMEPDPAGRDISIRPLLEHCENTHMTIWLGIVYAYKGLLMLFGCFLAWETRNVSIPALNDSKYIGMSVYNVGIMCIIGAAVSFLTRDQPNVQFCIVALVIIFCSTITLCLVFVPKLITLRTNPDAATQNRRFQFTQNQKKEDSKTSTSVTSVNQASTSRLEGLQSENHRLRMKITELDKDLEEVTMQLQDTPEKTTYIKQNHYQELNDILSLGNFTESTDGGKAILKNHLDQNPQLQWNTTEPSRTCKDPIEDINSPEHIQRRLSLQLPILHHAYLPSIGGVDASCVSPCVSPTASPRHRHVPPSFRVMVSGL
T1 sequence (Q9Z0U4 17-960 limits assumed): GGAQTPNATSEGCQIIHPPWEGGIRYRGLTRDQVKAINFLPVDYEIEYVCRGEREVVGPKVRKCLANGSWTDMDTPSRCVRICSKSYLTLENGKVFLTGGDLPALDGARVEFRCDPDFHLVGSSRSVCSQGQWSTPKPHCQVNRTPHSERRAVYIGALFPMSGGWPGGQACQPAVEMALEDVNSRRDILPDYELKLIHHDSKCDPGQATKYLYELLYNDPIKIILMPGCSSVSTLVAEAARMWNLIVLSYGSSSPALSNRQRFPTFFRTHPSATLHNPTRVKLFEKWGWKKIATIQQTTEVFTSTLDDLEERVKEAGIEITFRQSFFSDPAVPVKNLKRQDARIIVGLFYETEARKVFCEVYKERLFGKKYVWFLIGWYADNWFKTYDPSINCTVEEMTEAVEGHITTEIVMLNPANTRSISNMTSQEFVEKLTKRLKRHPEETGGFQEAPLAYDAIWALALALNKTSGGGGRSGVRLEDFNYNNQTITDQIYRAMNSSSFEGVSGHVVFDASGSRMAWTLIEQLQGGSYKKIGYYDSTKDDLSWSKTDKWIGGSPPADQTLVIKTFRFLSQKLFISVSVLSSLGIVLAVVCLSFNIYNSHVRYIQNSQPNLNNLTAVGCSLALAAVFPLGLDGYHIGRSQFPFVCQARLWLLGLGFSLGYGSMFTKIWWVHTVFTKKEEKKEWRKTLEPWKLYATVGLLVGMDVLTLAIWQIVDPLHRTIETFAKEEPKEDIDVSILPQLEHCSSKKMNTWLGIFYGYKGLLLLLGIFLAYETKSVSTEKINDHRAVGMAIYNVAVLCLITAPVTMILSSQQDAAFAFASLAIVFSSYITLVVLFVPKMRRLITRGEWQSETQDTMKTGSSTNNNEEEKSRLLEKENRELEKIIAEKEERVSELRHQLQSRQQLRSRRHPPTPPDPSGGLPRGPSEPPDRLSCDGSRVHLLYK

SMILES	USV inhibition at 1 mg/kg (%) [1] [%]	brain exposure at 1 mg/kg [2] [ng/g]	plasma exposure at 1 mg/kg [2] [ng/mL]	EC50 [3] [nM]	binding potency (Faghih et al.) [4]
Cc1nc2cc([C@H]3CC[C@H](C(F)(F)F)CC3)nn2c(N2CCC[C@@](C)(C(=O)O)C2)c1C(C)C [Example 3, (3R)-3-methyl-1-[5-methyl-6-(propan-2-yl)-2-[trans-4-(trifluoromethyl)cyclohexyl]-pyrazolo [1,5-a]pyrimidin-7-yl]piperidine-3-carboxylic Acid]	100	18	58	< 1	–
CCC(c1ccc(Cl)cc1)c1cc2nc(C)cc(N3CCCCC3CCO)n2n1 (stereo not drawn) [Example 3-1]	–	–	–	–	nanomolar
CCCC(c1ccc(Cl)cc1)c1cc2nc(C)cc(N3CCCCC3CCO)n2n1 (stereo not drawn) [Example 5-1]	–	–	–	–	nanomolar
Cc1cc(N2CCCCC2CCO)n2nc(CC34CC5CC(CC(C5)C3)C4)cc2n1 (stereo not drawn) [Example 7-1]	–	–	–	–	high micromolar
Cc1nc2cc([C@H]3CC[C@H](C(F)(F)F)CC3)nn2c(N2CCC[C@](C)(C(=O)O)C2)c1C(C)C [Example 11]	71	68	146	1 to 10	–
C[C@@]1(C(=O)O)CCCN(c2c3c(nc4cc([C@H]5CC[C@H](C(F)(F)F)CC5)nn24)CCCCC3)C1 [Example 35]	57	35	207	1 to 10	–
